Reference: patent US5214034A, “Catechol derivatives, and preventive and remedial preparations for regressive disorders in the central nervous system containing the same” (priority 1986, dated 1993)
“Also recorded” adds a separate entry of the source.

Assays:
[1] = system: production and secretion of NGF in brain astroglial cells; test: Promoting activity for the production and secretion of NGF in brain astroglial cells of mouse (ELISA); details: 24 h
Protocol: The experiment was performed by inducing the astroglial cells from mouse forebrain to culture system according to the procedures of S. Furukawa et al. which is described in Biochem. Biophys. Res. Commun., 136, 57-63 (1986).
That is, forebrains of 8-day old mice were dissected out and cut into small pieces. […] Cells and cell clamps were recovered by centrifugation at 200 xg for 5 minutes. They were cultured in Dulbecco modified Eagle's medium (a product of Gibco Co. hereinafter abbreviated as DMEM) containing 10% of fetal calf serum, […] of penicillin, and 50 μg/ml of streptomycin, for 10 to 14 days with medium changes every 3 days. After completing confluency, the cells were dissociated by trypsin treatment and recultured in new culture flasks. This procedure was repeated further twice and more. […] The cells will hereinafter be referred to as astroglial cells.
Astroglial cells were innoculated in 24-well plates having a well surface area of 2.1 cm^2 (a product of Falcon Co.) at a cell density of about 3×10^4 cells/well and cultured for 3 days in DMEM . medium supplemented with 10% of fetal calf serum. After completing confluency about 10^7 cells/well), the medium was changed to DMEM medium (0.5 ml/well) supplemented with 0.5% of bovine serum albumin ((fraction V) and cultured for 3 days. The culture was further continued with medium changes every 3 days. After cells were practically synchronized in the quiscent stage, the medium was changed to 0.5 ml of the medium supplemented with 0.5% of bovine serum albumin and containing a prescribed concentration of test sample as illustrated in Tables. […] Data are expressed as fold increase in NGF content over that in the absence of the test sample. […] Data are presented as means ±SE of four determinations.

[2] = system: production and secretion of NGF on L-M cells; test: Promoting action for the production and secretion of NGF on L-M cells of mouse (ELISA); assay type: cell-based; details: Mus musculus, 24 h, read-out: Ratio of NGF increase
Excerpt: Catecholamines have also been found in a relatively high concentration to accelerate these functions without being mediated by adrenergic receptors [Y. Furukawa et al., J. Biol. Chem., 261, 6039-6047 (1986)].
The compound having a high activity in Table 1, that is, the catechol derivative having a n-alkyl group in the 3 or 4 position on the ring has been observed an acute cell toxicity in higher concentrations. The toxicity was considered the result of two hydroxyl groups in the catechol structure. Then the hydroxyl groups were esterified or etherified and the resulting derivative was examined the effect on the activity for the production and secretion of NGF.
The experiment was performed according to the procedures of Y. Furukawa et al. which is described in J. Bis Chem., 261, 6039-6047 (1986).
The medium was cultured for 3 days at a temperature of 37° C. After completing the confluency (about 10^6 cells/well), the medium was changed to Medium 199 (0.5 ml/well) containing 0.5% bovine serum albumin (Fraction V, a product of Armour Co.). The sample of the derivative is contained in the medium at a prescribed concentration as illustrated in the Tables.

NGF = NGF production in the central nervous system of normal rats by intraperitoneal injection (NGF content of brain tissue, ELISA); assay type: in vivo, rat (Wistar male)
Protocol: The derivative (A), e.g. R=Two H, R1 =H and R2 =n-propyl (hereinafter referred to as 4-n-propylcatechol), was administered to normal rats by intraperitoneal injection, and the effect was examined.
4-n-Propylcatechol was administered by intraperitoneal injection 4 times every other day in a dosage of 5 mg/kg. The rats were killed two days after the final administration. The NGF content of each parts in brain was measured. The content was compared with those of control group which was administered saline alone.
A variety of the derivative was administered three times every other day. The content of NGF in the forebrain after 48 hours and 7 days from the final administration was measured and illustrated in Table 7.
Wistar male rats (9-10-week old, 200-250 g of weight) were intraperitoneally injected with the test derivative in a volume of 0.5 ml as a saline solution, emulsion or suspension. Dose and administration times were the same as above. The rats were killed by a hard spinal blow two days after the final administration. Each parts of brain were dissected and subjected to the following treatment under ice cooling.
Each parts of brain were weighed and homogenized for 30 strokes by a Dounce type homogenizer in a homogenization buffer (0.1 M Tris-HCl, containing 2% bovine serum albumin fraction V, 2% gelatin, 1.0 M NaCl, 0.02% NaN3, 2 mM EDTA and 2.6 kiu/ml of aprotinin, pH 7.6) at a concentration of 10% (W/V) (only septum 5% (W/V)). Each homogenate was centrifuged at 100,000 xg for 10 minutes, and 50 μl of supernatant was added with the same amount of a dilution buffer (0.1 M Tris-HCl containing 2% bovine serum albumin fraction V, 0.05% NaN3 and 20 mM CaCl2, pH 7.6). Determination was conducted in accordance with a method of S. Furukawa et al. by using a high sensitivity ELISA system on 8-NGF which was described in J. Neurochem., 40, 734-744 (1983). Lower limit of determination is 0.25 pg/ml. Data are indicated as a mean value ±SE on the NGF content of tissue (pg/mg wet tissue) of five rats.

[3] = Table 6, i.p. 5 mg/kg, 4 times every other day
[4] = Table 6, i.p. 5 mg/kg, 4 times every other day, **P 0.01 vs saline

CCCc1ccc(O)c(O)c1 [R = Two H, R1 = H, R2 = n-Propyl, 4-n-propylcatechol]
fold induction at 100 µM ([1]; read-out: Ratio of NGF increase, Table 3, 0.10 mM, 24 hours, mean ± SE of four determinations): 68.4 ± 3.24 | fold induction at 250 µM ([1]; read-out: Ratio of NGF increase, Table 3, 0.25 mM, 24 hours, mean ± SE of four determinations): 100 ± 11.2 | fold induction at 30 µM [2]: 10.1 ± 1.14 | fold induction at 100 µM [2]: 17.1 ± 2.7 | NGF production in brain regions (in words) (NGF): marked activation of NGF production was observed in frontal cortex, hippocampus and olfactory bulb; also recorded: Significant increase in NGF level was also observed in the original region of cholinergic tracts | NGF content, cerebellum (NGF; [3]): 0.33 ± 0.16 pg/mg wet tissue | NGF content, striatum (NGF; [3]): 0.24 ± 0.04 pg/mg wet tissue | NGF content, NBM (nucleus basalis magnecellularis) (NGF; [4]): 1.69 ± 0.17 pg/mg wet tissue | NGF content, olfactory bulb (NGF; [4]): 1.70 ± 0.24 pg/mg wet tissue | NGF content, septum (NGF; [4]): 1.39 ± 0.14 pg/mg wet tissue | NGF content, hippocampus (NGF; Table 6, i.p. 5 mg/kg, 4 times every other day, *P < 0.05 vs saline): 3.92 ± 0.63 pg/mg wet tissue | NGF content, frontal cortex (NGF; Table 6, i.p. 5 mg/kg, 4 times every other day, two days after final administration, *P < 0.05 vs saline): 2.14 ± 0.49 pg/mg wet tissue | NGF content after 48 hr. (NGF; Table 7, i.p., three times every other day, 48 hours after final administration): 1.97 ± 0.41 pg/mg wet tissue of frontal co | NGF content after 7 days (NGF; Table 7, i.p., three times every other day, 7 days after final administration): 2.28 ± 0.29 pg/mg wet tissue of frontal co
